{
  "source": "patent US10221158B2",
  "about": "“Heterocyclic constrained tricyclic sulfonamides as anti-cancer agents” (ICAHN SCHOOL OF MEDICINE AT MOUNT SINAI, priority 2015, dated 2019)",
  "tested_on": "H1650 lung cancer cells",
  "experiment": "Cell viability assay (MTT, IC50 determination)",
  "type": "cell-based",
  "details": "Homo sapiens, NCI-H1650, 48 h drug treatment",
  "protocol": "Cell Viability Assays (IC50 Determination)\nCell viability assays were performed according to Denizot, F. and R. Lang, Journal of Immunological Methods, 1986. 89(22): p. 271-277. H1650 lung cancer cells were plated at 150,000 cells per well in a 12 well plate. Twenty-four hours after plating, cells were treated as described with increasing concentrations of drug and control. Forty-eight hours after drug treatment, cells were treated with 100 μL of 3-(4,5-Dimethylthiazol-2-yl)-2,5-diphenyltetrazolium bromide (MTT) and incubated for 2 hours at 37 C. The MTT solution was subsequently replaced with 300 μL of n-propyl alcohol and re-aliquoted to a 96 well plate. Spectrophotometric analysis of each solution was performed using a 96 well plate reader at 600 nm in triplicate.",
  "data": [
    {"smiles": "O=S(=O)(N[C@@H]1COC[C@H](N2c3ccccc3CCc3ccccc32)[C@H]1O)c1ccc(OC(F)(F)F)cc1", "note": "(racemic) [Example 1, Rac-N-((3R,4R,5S)-5-(10,11-dihydro-5H-dibenzo[b,f]azepin-5-yl)-4-hydroxytetrahydro-2H-pyran-3-yl)-4-(trifluoromethoxy)benzenesulfonamide]", "values": [
      {"measurement": "IC50", "value": 15, "unit": "µM"}
    ]}
  ]
}
